This note sets out measurements from PubChem BioAssay (NCI).

Several values for one entry are separate records, joined by “and”; a condition that tells them apart may be missing. Identical values can stand only once.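 Results reflect a 48-hour exposure of cells in 96-well plates to compound at five concentrations. GI50 = concentration required for 50% inhibition of growth. At the TGI there is no net growth.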

Among the test systems are 786-0 renal; CAKI-1 renal; COLO 205 colon; HOP-92 NSCLC; HS 578T breast; MOLT-4 leukemia; SF-268 CNS; SK-MEL-2 melanoma; SK-OV-3 ovarian; T-47D breast.
Common to all, as to test: NCI anticancer screen, dose series, 48 h

For `Cc1ccc2c(C(C[N+](=O)[O-])c3ccccc3)c(-c3ccccc3)[nH]c2c1` (stereo unspecified), the GI50 in the test on 786-0 renal was 40.3 µM; in the test on CAKI-1 renal it was 4.73 µM; in the test with COLO 205 colon, 21.8 µM; in the test with HOP-92 NSCLC it was 11.8 µM; in the test on HS 578T breast it was 16.8 µM; in the test on MOLT-4 leukemia, 34 µM. The GI50 is 73.3 µM in the test with SF-268 CNS, 46.3 µM in the test with SK-MEL-2 melanoma, 33.8 µM with SK-OV-3 ovarian and 26.4 µM with T-47D breast. In addition, the TGI is over 95 µM in the test with 786-0 renal; over 95 µM with CAKI-1 renal; over 95 µM in the test with COLO 205 colon; over 95 µM in the test on HOP-92 NSCLC; 94.3 µM in the test on HS 578T breast; over 95 µM in the test with MOLT-4 leukemia. Further, the TGI with SF-268 CNS, in the test with SK-MEL-2 melanoma, with SK-OV-3 ovarian and in the test with T-47D breast was over 95 µM throughout.
With `Cc1ccc(OP(=O)(Oc2ccc(C)cc2)N2C=Cc3ccccc3C2C#N)cc1` (stereo unspecified), the TGI in the test on 786-0 renal, in the test on CAKI-1 renal, with COLO 205 colon, with HOP-92 NSCLC, in the test on HS 578T breast and in the test with MOLT-4 leukemia was over 100 µM throughout. Besides, the TGI in the test with SF-268 CNS, in the test on SK-MEL-2 melanoma, with SK-OV-3 ovarian and in the test on T-47D breast was over 100 µM each time.
`COc1nc(N)nc2c1ncn2C1CC(O)C(CO)O1` (stereo unspecified): the TGI in the test with 786-0 renal, in the test with CAKI-1 renal, in the test with COLO 205 colon, with HOP-92 NSCLC, in the test with HS 578T breast and in the test on MOLT-4 leukemia was over 100 µM each time. The TGI in the test on SF-268 CNS, in the test with SK-MEL-2 melanoma, in the test with SK-OV-3 ovarian and in the test on T-47D breast was over 100 µM throughout.
For the compound `Cc1cc(OCc2nnc3n2S(=O)(=O)c2ccccc2N3C)ccc1Cl`, the TGI in the test with 786-0 renal is 32.7 µM; with CAKI-1 renal, over 100 µM; in the test with COLO 205 colon, over 100 µM; in the test with HOP-92 NSCLC, 36.4 µM; in the test on HS 578T breast it was over 100 µM; in the test on MOLT-4 leukemia, over 100 µM. In addition, the TGI is 68 µM in the test on SF-268 CNS, over 100 µM with SK-MEL-2 melanoma, 37.4 µM in the test with SK-OV-3 ovarian and over 100 µM in the test with T-47D breast.
For the compound `CCOC(=O)C(=Cc1ccc(C#N)cc1)C(=O)OCC`, the GI50 was 1.84 µM in the test on 786-0 renal; 2.12 µM in the test on CAKI-1 renal; 1.87 µM in the test on COLO 205 colon; 1.63 µM in the test with HOP-92 NSCLC; 4.19 µM with HS 578T breast; 3.09 µM in the test with MOLT-4 leukemia. Also, the GI50 in the test with SF-268 CNS was 2.29 µM; in the test with SK-MEL-2 melanoma, 1.93 µM; with SK-OV-3 ovarian, 9.86 µM; in the test with T-47D breast, 2.15 µM. Further, the TGI in the test with 786-0 renal was 3.88 µM; in the test with CAKI-1 renal, 5.37 µM; in the test with COLO 205 colon, 3.83 µM; with HOP-92 NSCLC, 4.26 µM; in the test on HS 578T breast, 37.9 µM; in the test on MOLT-4 leukemia, 11.5 µM. Further, the TGI in the test with SF-268 CNS amounted to 7.57 µM; with SK-MEL-2 melanoma, 4.19 µM; in the test with SK-OV-3 ovarian, 21.5 µM; in the test on T-47D breast, 7.96 µM.
Take `NC(=O)c1cc(N2CC2)c([N+](=O)[O-])cc1[N+](=O)[O-]`: the GI50 in the test with 786-0 renal, with CAKI-1 renal, in the test on COLO 205 colon, in the test on HOP-92 NSCLC, in the test with SF-268 CNS and with SK-OV-3 ovarian was over 200 µM throughout. Besides, the TGI with 786-0 renal was over 200 µM; in the test on CAKI-1 renal, over 200 µM; with COLO 205 colon it was over 200 µM; in the test with HOP-92 NSCLC, over 200 µM; with HS 578T breast, over 200 µM; in the test on MOLT-4 leukemia it was over 63.2 µM. For the same compound, the TGI in the test on SF-268 CNS was over 200 µM; in the test with SK-MEL-2 melanoma, over 20 µM; with SK-OV-3 ovarian, over 200 µM; in the test on T-47D breast, over 200 µM.
For `NC(=S)N/N=C/c1ccc(OC(=O)COc2cc(Cl)c(Cl)cc2Cl)cn1`, the GI50 in the test on 786-0 renal was 3.54 µM; with CAKI-1 renal it was 3.97 µM; with COLO 205 colon it was 7.39 µM; with HOP-92 NSCLC, 1.54 µM; in the test on HS 578T breast, 51 µM; with MOLT-4 leukemia, 4.53 µM. The GI50 with SF-268 CNS was 3.52 µM; in the test with SK-MEL-2 melanoma, 12.7 µM; with SK-OV-3 ovarian, 8.49 µM; in the test on T-47D breast it was 2.87 µM. Besides, the TGI was over 100 µM with 786-0 renal; over 100 µM with CAKI-1 renal; over 100 µM in the test with COLO 205 colon; 26.6 µM in the test with HOP-92 NSCLC; over 100 µM in the test with HS 578T breast; over 100 µM in the test with MOLT-4 leukemia. Besides, the TGI in the test on SF-268 CNS was 43.6 µM; in the test on SK-MEL-2 melanoma it was over 100 µM; in the test with SK-OV-3 ovarian it was over 100 µM; with T-47D breast, over 100 µM.
Regarding `Cn1ncc(Cl)c1-c1cc(C(=O)N[C@H](CN)Cc2cccc(F)c2)sc1Cl`, the GI50 is 0.0578 µM and 0.0899 µM in the test with 786-0 renal; 1.45 µM and 3.03 µM with CAKI-1 renal; 0.546 µM and 1.25 µM in the test on COLO 205 colon; 0.338 µM and 0.519 µM in the test with HOP-92 NSCLC; 0.2 µM and 0.339 µM in the test with HS 578T breast; 0.196 µM and 0.123 µM in the test with MOLT-4 leukemia. The GI50 with SF-268 CNS is 1.72 µM and 3.64 µM; in the test on SK-MEL-2 melanoma it was 1.98 µM and 4.65 µM; in the test on SK-OV-3 ovarian, 0.242 µM and 0.34 µM; with T-47D breast, 0.0272 µM and 0.0492 µM. Further, the TGI in the test on 786-0 renal was 1.85 µM and 4.12 µM; in the test on CAKI-1 renal it was > 9.48 µM and 15.5 µM; in the test with COLO 205 colon it was 1.84 µM and 5.21 µM; with HOP-92 NSCLC, 2.77 µM and 4.21 µM; in the test on HS 578T breast, 2.98 µM and 3.27 µM; in the test with MOLT-4 leukemia, 3.13 µM and 3.51 µM. Also, the TGI in the test on SF-268 CNS was > 9.54 µM and 17.1 µM; in the test on SK-MEL-2 melanoma, > 6.11 µM and 12.3 µM; in the test on SK-OV-3 ovarian, 4.58 µM and 7.05 µM; with T-47D breast, 1.48 µM.
Regarding `Cc1c(Cn2c(C)nc3c(C(=O)O)cc(N4CCOCC4)cc32)cccc1C(F)(F)F`, the GI50 was 24.7 µM with 786-0 renal; 7.44 µM in the test on CAKI-1 renal; 49.2 µM with COLO 205 colon; 14.1 µM in the test with HOP-92 NSCLC; 50.5 µM in the test with HS 578T breast; 56.6 µM with MOLT-4 leukemia. Also, the GI50 with SF-268 CNS was 56 µM; in the test on SK-MEL-2 melanoma, 96.9 µM; with SK-OV-3 ovarian, 77.5 µM; in the test on T-47D breast, 36.7 µM. The TGI in the test on 786-0 renal, in the test with CAKI-1 renal, in the test with COLO 205 colon, in the test on HOP-92 NSCLC, in the test on HS 578T breast and in the test with MOLT-4 leukemia was over 100 µM throughout. The TGI in the test on SF-268 CNS, in the test on SK-MEL-2 melanoma, in the test on SK-OV-3 ovarian and in the test with T-47D breast was over 100 µM in each case.
